We go through 11 compounds from ChEMBL document CHEMBL1764947, “Symmetric double-headed aminopyridines, a novel strategy for potent and membrane-permeable inhibitors of neuronal nitric oxide synthase” (J Med Chem, 2011).

Test [1] is described as follows: Selectivity ratio of Ki for bovine recombinant eNOS to Ki for rat recombinant nNOS.
The nature of test [2]: Selectivity ratio of Ki for murine macrophage recombinant iNOS to Ki for rat recombinant nNOS.
The next test addresses Nitric oxide synthase 1 (Rattus norvegicus, UniProt P29476). As to the kind of experiment: Inhibition of rat recombinant nNOS expressed in Escherichia coli by UV-vis spectrometric analysis.
The next test deals with T1, Nitric oxide synthase 3 (Bos taurus, UniProt P29473).
T1 sequence (P29473 whole entry): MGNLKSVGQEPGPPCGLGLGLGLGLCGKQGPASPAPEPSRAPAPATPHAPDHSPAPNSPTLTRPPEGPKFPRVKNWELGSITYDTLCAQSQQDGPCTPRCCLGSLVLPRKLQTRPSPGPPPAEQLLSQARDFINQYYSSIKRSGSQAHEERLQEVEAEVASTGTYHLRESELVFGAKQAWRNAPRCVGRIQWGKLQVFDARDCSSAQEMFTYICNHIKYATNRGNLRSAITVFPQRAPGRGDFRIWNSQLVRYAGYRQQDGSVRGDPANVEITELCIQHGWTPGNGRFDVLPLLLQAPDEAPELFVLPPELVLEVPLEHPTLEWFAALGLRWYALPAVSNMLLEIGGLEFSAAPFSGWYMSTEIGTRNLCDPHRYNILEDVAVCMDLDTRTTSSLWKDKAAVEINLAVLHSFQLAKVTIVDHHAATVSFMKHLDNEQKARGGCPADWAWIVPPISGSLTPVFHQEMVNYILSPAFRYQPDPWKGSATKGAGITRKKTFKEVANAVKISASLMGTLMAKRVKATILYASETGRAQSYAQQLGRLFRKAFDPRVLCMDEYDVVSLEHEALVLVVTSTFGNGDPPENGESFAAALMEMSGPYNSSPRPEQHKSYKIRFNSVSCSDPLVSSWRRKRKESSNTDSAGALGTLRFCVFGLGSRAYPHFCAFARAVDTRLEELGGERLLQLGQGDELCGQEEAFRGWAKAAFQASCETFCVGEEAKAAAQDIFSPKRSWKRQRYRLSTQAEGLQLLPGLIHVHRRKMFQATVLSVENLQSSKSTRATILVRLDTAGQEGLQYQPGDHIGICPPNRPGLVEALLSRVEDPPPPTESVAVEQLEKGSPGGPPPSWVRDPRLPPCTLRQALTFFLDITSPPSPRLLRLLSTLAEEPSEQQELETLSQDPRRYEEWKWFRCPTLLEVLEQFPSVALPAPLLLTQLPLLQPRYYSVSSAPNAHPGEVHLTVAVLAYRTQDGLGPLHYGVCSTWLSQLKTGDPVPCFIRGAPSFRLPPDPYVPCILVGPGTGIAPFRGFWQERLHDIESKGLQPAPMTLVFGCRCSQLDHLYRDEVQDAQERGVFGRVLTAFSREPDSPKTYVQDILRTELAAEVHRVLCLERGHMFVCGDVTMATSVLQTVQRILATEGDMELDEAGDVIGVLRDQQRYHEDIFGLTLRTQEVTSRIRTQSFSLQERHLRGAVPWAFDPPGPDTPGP
Kind of test: Inhibition of bovine recombinant eNOS expressed in Escherichia coli by UV-vis spectrometric analysis.

Test [3] addresses T2, Nitric oxide synthase, inducible (Mus musculus, UniProt P29477).
T2 sequence (P29477 whole entry): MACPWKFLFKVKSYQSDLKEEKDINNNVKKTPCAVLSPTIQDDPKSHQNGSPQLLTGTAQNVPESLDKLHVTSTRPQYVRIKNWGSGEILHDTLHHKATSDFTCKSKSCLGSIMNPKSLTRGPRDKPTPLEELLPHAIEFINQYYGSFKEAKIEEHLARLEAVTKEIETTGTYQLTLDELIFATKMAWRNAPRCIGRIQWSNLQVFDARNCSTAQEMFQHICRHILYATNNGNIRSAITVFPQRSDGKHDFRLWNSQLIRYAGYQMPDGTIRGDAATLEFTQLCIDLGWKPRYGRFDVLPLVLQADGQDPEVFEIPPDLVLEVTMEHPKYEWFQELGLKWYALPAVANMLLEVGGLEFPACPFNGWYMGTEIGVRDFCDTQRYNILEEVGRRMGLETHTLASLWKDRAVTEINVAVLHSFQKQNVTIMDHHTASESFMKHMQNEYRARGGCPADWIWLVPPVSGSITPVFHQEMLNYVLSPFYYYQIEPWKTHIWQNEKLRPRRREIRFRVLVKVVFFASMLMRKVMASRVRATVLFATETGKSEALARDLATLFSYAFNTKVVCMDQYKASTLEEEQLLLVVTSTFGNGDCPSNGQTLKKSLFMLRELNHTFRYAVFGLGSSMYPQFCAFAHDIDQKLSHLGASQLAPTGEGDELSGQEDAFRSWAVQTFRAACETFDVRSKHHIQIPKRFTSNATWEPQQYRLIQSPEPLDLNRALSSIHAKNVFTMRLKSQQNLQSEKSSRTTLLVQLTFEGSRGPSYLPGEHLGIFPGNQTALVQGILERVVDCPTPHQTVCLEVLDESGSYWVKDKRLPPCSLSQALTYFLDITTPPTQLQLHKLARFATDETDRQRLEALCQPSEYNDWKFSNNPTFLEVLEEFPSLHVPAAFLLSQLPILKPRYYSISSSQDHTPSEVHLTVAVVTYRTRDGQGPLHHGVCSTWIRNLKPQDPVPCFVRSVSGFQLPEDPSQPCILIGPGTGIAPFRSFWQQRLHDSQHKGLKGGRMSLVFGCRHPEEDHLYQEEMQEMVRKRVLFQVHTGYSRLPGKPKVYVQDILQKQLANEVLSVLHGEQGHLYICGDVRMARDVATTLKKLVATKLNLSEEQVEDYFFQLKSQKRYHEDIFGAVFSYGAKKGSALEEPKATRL
Kind of test: Inhibition of mouse macrophage recombinant iNOS expressed in Escherichia coli by UV-vis spectrometric analysis.

Chain of Nitric oxide synthase 1 (P29476 whole entry): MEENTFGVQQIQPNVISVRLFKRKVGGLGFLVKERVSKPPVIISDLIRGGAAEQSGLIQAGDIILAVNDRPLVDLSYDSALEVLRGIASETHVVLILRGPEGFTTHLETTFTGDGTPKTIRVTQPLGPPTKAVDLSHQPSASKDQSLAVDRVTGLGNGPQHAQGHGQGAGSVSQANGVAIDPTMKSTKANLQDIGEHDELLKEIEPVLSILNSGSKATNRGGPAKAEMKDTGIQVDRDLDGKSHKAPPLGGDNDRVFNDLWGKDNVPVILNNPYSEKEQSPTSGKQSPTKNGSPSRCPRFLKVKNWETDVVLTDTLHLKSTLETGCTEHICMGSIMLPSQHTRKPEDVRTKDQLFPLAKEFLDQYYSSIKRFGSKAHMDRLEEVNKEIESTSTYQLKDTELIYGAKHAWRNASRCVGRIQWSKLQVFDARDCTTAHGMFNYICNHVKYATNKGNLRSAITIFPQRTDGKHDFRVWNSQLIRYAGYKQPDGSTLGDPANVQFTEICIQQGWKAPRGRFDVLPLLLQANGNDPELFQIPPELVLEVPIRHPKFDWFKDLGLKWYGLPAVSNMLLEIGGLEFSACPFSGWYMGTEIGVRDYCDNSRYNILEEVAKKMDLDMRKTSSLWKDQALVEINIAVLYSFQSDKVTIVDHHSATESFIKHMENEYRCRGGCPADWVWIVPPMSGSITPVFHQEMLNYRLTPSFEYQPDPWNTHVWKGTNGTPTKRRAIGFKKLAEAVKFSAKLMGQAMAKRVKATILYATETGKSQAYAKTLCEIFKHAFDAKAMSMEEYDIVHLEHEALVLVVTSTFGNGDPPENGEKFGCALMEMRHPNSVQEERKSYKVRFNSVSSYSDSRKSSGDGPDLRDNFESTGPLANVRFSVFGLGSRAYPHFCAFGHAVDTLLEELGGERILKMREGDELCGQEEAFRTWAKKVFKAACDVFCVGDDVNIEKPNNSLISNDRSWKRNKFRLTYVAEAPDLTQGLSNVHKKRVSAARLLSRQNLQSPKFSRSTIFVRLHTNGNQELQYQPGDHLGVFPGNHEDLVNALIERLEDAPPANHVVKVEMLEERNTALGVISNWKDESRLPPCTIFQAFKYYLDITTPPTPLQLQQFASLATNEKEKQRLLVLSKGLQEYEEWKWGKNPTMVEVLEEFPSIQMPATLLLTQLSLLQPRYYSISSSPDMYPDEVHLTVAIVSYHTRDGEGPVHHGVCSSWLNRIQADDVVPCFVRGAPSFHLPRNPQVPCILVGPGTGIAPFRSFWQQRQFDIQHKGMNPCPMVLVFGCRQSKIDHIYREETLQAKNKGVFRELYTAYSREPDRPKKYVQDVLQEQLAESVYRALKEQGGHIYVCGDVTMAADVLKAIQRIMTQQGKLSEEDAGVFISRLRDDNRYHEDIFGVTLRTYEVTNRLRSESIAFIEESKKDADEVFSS

As for `Cc1cc(N)nc(CCc2cncc(CCc3cc(C)nc(N)c3)c2)c1`, the Ratio Ki in test [1] was determined as 156; in test [2], 19.
For orientation: Ki means the equilibrium dissociation constant of an inhibitor or competing ligand from its target. For `Cc1cc(C)nc(NCc2ccc3cc(CNc4cc(C)cc(C)n4)ccc3c2)c1`, the Ki on Nitric oxide synthase 1 was over 1 µM.
On the same count and under the same terms, the result for `Cc1cc(N)nc(CCc2ccc3ccc(CCc4cc(C)nc(N)c4)cc3c2)c1` reads over 1 µM.
On to `Cc1cc(N)nc(CCc2ccc3cc(CCc4cc(C)cc(N)n4)ccc3c2)c1`, for which the Ratio Ki turned out to be 7.22 in test [1] and 9.42 in test [2].
Turning to `Cc1cc(N)nc(CCc2ccc3ccc(CCc4cc(C)cc(N)n4)cc3c2)c1`, the Ratio Ki in test [1] worked out at 14.9; in test [2], 20.1.
The like results for `Cc1cc(N)nc(CCc2cccc(CCc3cc(C)cc(N)n3)n2)c1` were, in that order, 95 and 48.
For `Cc1cc(N)nc(CCc2cccc(CCc3cc(C)nc(N)c3)c2)c1` the same measures were 111 and 71.8.
With `Cc1cc(CCc2cccc(CCc3cc(C)nc(N)c3)c2)cc(N)n1`, at Nitric oxide synthase 1, the Ki was over 1 µM.
As to `Cc1cc(N)nc(CCc2cccc(CCc3cc(C)nc(N)c3)n2)c1`, the values for the Ki (at Nitric oxide synthase 1; on Nitric oxide synthase 3; in test [3]) were 0.195 µM, 20 µM and 12.6 µM, respectively.
Consider `Cc1cc(N)nc(CCc2cc(N)cc(CCc3cc(C)cc(N)n3)c2)c1`, for which the Ki was found to be 0.085 µM at Nitric oxide synthase 1, 4.95 µM at Nitric oxide synthase 3 and 3.4 µM in test [3]. Also, the Ratio Ki in test [1] is 58; in test [2], 40.
As for `Cc1cc(N)nc(CCc2ccc(CCc3cc(C)cc(N)n3)cc2)c1`, the Ratio Ki was 24.6 in test [1] and 24.8 in test [2].
